Reference: US9308210B2, “Method for modulating canonical Wnt pathway using folate and inositol” (University of South Florida, priority 2009, dated 2016)
Counter-ions that a name gives are not always drawn.

Tests used:
[1] = tested on: Wnt pathway-associated and lipid metabolism genes; assay: Affymetrix microarray of E15.5 embryonic heart tissue after Li+ or HCys exposure with or without FA; assay type: in vivo, mouse
Text: The inbred C57B16 mouse strain (Jackson Laboratories, Bar Harbor, Me.) was used throughout this study. It has become recognized that mouse strains can differ in their response to environmental factors (Andrikopoulos et al., 2005; Barnabei et al., 2010; Funkat et al., 2004). Thus, the mouse strain being used should be taken into consideration when comparing different studies. Morning of detection of the vaginal sperm plug was defined as embryonic day (E) 0.5. Timed-pregnant mice were randomly allocated to receive intraperitoneally (i.p.) either a single dose of 100 μl of 6.25 mg/ml of lithium chloride (Li+), as previously determined (Chen et al., 2008), 100 μl of 75 μM HCys (Han et al., 2009), or 100 μl of 0.9% physiological saline (control group). […]
As in the previous studies, animal chow was supplemented with 10.5 mg/kg folic acid (FA), a concentration that has been used in trial human population studies (Czeizel et al., 2013; Han et al., 2009). […] On ED 6.75 (at 5:30 PM) experimental pregnant females received Li+ or HCys by an i.p. injection that the inventors reported induces a high incidence of valve and heart defects as detected by echocardiography at mid-gestation on ED 15.5 (Han et al., 2009).
The inventors analyzed for gene misexpression in the embryonic heart on E15.5 of gestation, i.e., over a week after the acute exposures. […]

[2] = tested on: Hex and Islet-1 (Isl1) gene expression; assay: In situ hybridization of Hex and Isl1 in avian heart fields after Li, HCy or Wnt3A with or without FA; assay type: in vivo, chick
Description: In situ hybridizations on control and experimentally manipulated chick embryos were carried out using digoxigenin-labeled riboprobes with alkaline phosphatase detection (Linask et al., 2001). Images of whole-mounted chick embryos were taken with a Nikon DS-L2 camera unit. Probes for chick Hex were provided by Parker Antin, University of Arizona and probes for chick Islet-1 (Isl1) were provided by Thomas Jessell, Columbia University, NY.
Chick embryos (HH stages 3+/4) were incubated on agarose albumin supplemented with HCy (50 μM). Instead of giving a single injection in ovo, embryos were exposed to HCy for 8 hours in order to define the effect on early cardiac gene expression. Another group of embryos were exposed to HCy for 24 hours at which time the effects on gene expression were determined. To analyze the effects during the looping stages, incubation was stopped after between 22 and 24 hours. After the 8-hour incubation, Li and HCy suppressed Hex and Isl1 expression in the cardiogenic crescent (FIG. 5).
The inventors next analyzed whether FA rescues the downregulation of Hex and Isl1. Chick embryos were exposed to Li, HCy or Wnt3A, as above, with and without 10 μg/ml of FA; the experiments were terminated after either an 8-hour or 24-hour exposure period, at which time in situ hybridizations for gene expression were performed. After 8 hours of exposure, Li, HCy and Wnt3A all suppressed Hex (FIGS. 9D, G, J) and Isl1 (FIGS. 10D, G, J) compared with the control embryonic expression patterns (FIG. 9A; FIG. 10A). […] Thus, FA supplementation suppressed the potentiation of the inhibitory Wnt signaling, allowing for normal induction of Hex and Isl1 gene expression.

SMILES	changes in lipid metabolism gene expression with high FA supplementation ([1]; Li or HCys exposure, FA 10.5 mg/kg diet)	Hex and Isl1 gene expression with FA supplementation ([2]; embryos exposed to Li, HCy or Wnt3A, FA 10 μg/ml, 8 hours)	heart formation and Hex/Isl1 expression with FA supplementation ([2]; embryos exposed to Li, HCy or Wnt3A, FA 10 μg/ml, 24 hours)	Wnt pathway-associated gene expression ([1]; E15.5 hearts after acute exposure at E6.75)	Hex and Isl1 expression in the cardiogenic crescent ([2]; 8 hours of exposure, HH stages 3+/4)	Isl1 gene expression ([2]; by 24 hours of Li or HCy exposure)
Nc1nc2ncc(CNc3ccc(C(=O)N[C@@H](CCC(=O)O)C(=O)O)cc3)nc2c(=O)[nH]1 [FA, folic acid]	prevented	normalized gene expression patterns	normal beating hearts had formed	–	–	–
N[C@H]1CCSC1=O [HCy, L-homocysteine thiolactone hydrochloride]	–	–	–	significantly misexpressed	suppressed	recovered
